pKi: −log10 of the molar value.

Assay [1] deals with T1, fibrinogen receptor (αIIbβ3) (Homo sapiens, UniProt P05106+P08514).
T1 construct: followed by the addition of 1 µg of the purified platelet αIIbβ3-containing liposomes; tissue Red Cross (platelets); host or cells: outdated, washed human platelets; lentil lectin sepharose purification
Kind of assay: Competitive binding of [3H]-SK&F-107260 to αIIbβ3 in liposomes. The following applies: purified platelet αIIbβ3-containing liposomes, 4.5 nM [3H]-SK&F-107260. The procedure: Ten units of outdated, washed human platelets (obtained from Red Cross) were lyzed by gentle stirring in 3% octylglucoside, 20 mM Tris-HCl, pH 7.4, 140 mM NaCl, 2 mM CaCl2 at 4°C for 2 h. The lysate was centrifuged at 100,000g for 1 h. The supernatant obtained was applied to a 5 mL lentil lectin sepharose 4B column (E.Y. Labs) preequilibrated with 20 mM Tris-HCl, pH 7.4, 100 mM NaCI, 2 mM CaCl2, 1% octylglucoside (buffer A). After 2 h incubation, the column was washed with 50 mL cold buffer A. The lectin-retained αIIbβ3 was eluted with buffer A containing 10% dextrose. All procedures were performed at 4°C. The αIIbβ3 obtained was >95% pure as shown by SDS polyacrylamide gel electrophoresis. […]
The binding to the fibrinogen receptor (αIIbβ3) was assayed by an indirect competitive binding method using [^3H]-SK&F-107260 as an RGD-type ligand. […] Bound radioactivity remaining on the filters was counted in 1.5 mL Ready Solve (Beckman Instruments, Fullerton, CA) in a Beckman Liquid Scintillation Counter (Model LS6800), with 40% efficiency. Nonspecific binding was determined in the presence of 2 µM unlabeled SK&F-107260 and was consistently less than 0.14% of the total radioactivity added to the samples. […]
Competition binding data were analyzed by a nonlinear least-squares curve fitting procedure. […]

The target of assay [2] is T2, αvβ3 (Homo sapiens, UniProt P05106+P06756).
T2 construct: Human placenta or human platelet αvβ3 (0.1-0.3 mg/mL) in buffer T; from tissue; host or cells: human placenta or human platelets
T2 sequence (P06756 31-889 limits assumed): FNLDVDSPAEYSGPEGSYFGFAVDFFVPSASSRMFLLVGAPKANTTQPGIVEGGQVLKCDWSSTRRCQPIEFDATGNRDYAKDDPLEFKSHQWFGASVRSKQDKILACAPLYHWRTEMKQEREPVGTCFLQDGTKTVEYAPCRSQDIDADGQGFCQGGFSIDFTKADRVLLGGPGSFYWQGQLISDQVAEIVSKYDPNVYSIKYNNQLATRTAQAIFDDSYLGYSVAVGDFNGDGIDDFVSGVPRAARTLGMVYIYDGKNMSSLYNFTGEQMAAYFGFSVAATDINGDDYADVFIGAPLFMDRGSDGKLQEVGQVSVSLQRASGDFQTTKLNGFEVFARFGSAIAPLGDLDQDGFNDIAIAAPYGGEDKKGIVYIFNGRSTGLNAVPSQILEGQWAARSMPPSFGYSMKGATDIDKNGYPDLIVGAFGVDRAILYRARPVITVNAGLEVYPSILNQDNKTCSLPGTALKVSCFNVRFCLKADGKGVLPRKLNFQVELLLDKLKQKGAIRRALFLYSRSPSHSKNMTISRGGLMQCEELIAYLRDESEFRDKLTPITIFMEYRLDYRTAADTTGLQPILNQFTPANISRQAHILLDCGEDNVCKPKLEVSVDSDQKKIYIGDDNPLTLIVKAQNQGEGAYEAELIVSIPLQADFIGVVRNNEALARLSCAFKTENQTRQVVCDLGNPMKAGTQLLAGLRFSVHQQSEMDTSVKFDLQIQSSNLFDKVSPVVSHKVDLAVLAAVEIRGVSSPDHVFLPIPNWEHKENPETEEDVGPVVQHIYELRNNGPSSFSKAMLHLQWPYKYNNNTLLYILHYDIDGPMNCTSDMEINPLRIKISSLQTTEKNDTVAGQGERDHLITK
T2 sequence (P06756 891-1048 partner limits assumed): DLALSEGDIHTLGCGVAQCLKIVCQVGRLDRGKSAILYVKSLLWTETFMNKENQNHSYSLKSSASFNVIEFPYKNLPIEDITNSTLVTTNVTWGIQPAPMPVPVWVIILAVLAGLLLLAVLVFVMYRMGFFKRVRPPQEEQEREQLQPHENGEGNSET
T2 sequence (P05106 27-788): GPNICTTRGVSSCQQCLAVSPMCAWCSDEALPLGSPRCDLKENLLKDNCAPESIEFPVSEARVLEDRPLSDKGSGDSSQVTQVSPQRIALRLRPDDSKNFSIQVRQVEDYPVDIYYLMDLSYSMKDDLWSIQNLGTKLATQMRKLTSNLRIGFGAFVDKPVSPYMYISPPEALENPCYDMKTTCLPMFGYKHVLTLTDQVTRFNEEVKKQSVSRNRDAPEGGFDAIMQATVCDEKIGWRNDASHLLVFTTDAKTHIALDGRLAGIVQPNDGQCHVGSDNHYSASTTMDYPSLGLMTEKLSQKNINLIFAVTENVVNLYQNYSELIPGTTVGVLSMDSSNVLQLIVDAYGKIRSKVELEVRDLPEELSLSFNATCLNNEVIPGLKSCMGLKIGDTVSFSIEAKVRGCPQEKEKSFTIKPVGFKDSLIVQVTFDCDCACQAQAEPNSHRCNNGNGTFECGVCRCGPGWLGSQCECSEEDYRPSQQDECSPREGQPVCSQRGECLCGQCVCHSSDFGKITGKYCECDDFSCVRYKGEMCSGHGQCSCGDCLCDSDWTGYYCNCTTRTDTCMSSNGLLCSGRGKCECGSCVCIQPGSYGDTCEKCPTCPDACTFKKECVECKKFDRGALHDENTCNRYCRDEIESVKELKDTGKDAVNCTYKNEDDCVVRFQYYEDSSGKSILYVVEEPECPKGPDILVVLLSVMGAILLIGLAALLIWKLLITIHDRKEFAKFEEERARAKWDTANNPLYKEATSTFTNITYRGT
Kind of assay: Solid-phase [3H]-SK&F-107260 binding to αvβ3 (inhibition of vitronectin binding). The note with it: human placenta or platelet αvβ3 on ELISA plates, 5.0 nM [3H]-SK&F-107260. The procedure:
Solid-Phase [^3H]-SK&F-107260 Binding to αvβ3: Human placenta or human platelet αvβ3 (0.1-0.3 mg/mL) in buffer T (containing 2 mM CaCl2 and 1% octylglucoside) was diluted with buffer T containing 1 mM CaCl2, 1 mM MnCl2, 1 mM MgCl2 (buffer A) and 0.05% NaN3, and then immediately added to 96-well ELISA plates (Corning, New York, NY) at 0.1 mL per well. 0.1 - 0.2 µg of αvβ3 was added per well. The plates were incubated overnight at 4°C. At the time of the experiment, the wells were washed once with buffer A and were incubated with 0.1 mL of 3.5% bovine serum albumin in the same buffer for 1 hr at room temperature. Following incubation the wells were aspirated completely and washed twice with 0.2 mL buffer A. […]
The plates were incubated for 1 hr at room temperature. […] The receptors were solubilized with 0.1 mL of 1% SDS and the bound [^3H]-SK&F-107260 was determined by liquid scintillation counting with the addition of 3 mL Ready Safe in a Beckman LS Liquid Scintillation Counter, with 40% efficiency. Nonspecific binding of [^3H]-SK&F-107260 was determined in the presence of 2 µM SK&F-107260 and was consistently less than 1% of total radioligand input. […] The Ki (dissociation constant of the antagonist) was calculated according to the equation: Ki = IC50/(1 + L/Kd), where L and Kd were the concentration and the dissociation constant of [^3H]-SK&F-107260, respectively.

T1 sequence (P08514 32-887 limits assumed): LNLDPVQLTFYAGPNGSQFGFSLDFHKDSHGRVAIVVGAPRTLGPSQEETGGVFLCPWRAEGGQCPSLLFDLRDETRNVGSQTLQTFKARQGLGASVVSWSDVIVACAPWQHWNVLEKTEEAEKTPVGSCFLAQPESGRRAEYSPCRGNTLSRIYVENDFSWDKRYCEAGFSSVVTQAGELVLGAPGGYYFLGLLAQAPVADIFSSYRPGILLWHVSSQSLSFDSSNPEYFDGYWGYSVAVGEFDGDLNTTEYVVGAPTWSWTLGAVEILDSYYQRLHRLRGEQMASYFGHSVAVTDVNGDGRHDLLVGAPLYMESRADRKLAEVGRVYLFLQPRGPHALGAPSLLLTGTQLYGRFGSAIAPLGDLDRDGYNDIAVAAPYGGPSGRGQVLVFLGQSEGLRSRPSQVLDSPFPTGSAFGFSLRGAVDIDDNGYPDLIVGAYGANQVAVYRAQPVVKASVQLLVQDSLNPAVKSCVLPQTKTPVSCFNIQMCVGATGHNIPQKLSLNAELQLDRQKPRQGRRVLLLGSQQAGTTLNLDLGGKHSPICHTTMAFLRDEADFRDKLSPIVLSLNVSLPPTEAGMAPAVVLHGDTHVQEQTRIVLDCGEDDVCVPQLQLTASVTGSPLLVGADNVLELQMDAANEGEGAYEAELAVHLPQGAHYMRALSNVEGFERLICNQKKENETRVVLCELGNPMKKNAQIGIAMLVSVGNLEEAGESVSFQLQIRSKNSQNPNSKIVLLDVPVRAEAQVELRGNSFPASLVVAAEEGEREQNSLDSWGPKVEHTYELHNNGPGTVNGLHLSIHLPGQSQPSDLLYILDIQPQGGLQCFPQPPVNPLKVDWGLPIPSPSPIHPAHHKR
T1 sequence (P08514 891-1039 partner limits assumed): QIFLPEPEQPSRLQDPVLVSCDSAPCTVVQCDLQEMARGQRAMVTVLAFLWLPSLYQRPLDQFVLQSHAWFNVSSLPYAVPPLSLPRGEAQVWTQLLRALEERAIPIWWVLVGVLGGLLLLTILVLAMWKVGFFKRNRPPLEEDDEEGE
T1 sequence (P05106 27-788): as the sequence (P05106 27-788) above

On to `CN(Cc1nc2ccccc2[nH]1)C(=O)c1ccc2c(c1)Cc1ccccc1C(CC(=O)O)C2` (racemic) [Example 1, (±)-10,11-dihydro-3-[[[(1H-benzimidazol-2-yl)methyl]methylamino]carbonyl]-5H-dibenzo[a,d]cycloheptene-10-acetic acid], for which the figures for the pKi in assay [1] and in assay [2] were less than 4.30 and 7.64, respectively.
Regarding `O=C(O)CC1Cc2ccc(C(=O)N3CCC(C4CCNCC4)CC3)cc2Cc2ccccc21` (racemic) [Example 2, (±)-10,11-dihydro-3-[1-(4,4'-bipiperidinyl)carbonyl]-5H-dibenzo[a,d]cycloheptene-10-acetic acid], the pKi in assay [1] is 8.05; in assay [2], 4.82.

(Values after patent EP0910563B1, “INTEGRIN RECEPTOR ANTAGONISTS” (SMITHKLINE BEECHAM CORPORATION, priority 1995, dated 1997).)
